Our source for the IC50 values is patent US11008317B2, “Triazolopyridine inhibitors of myeloperoxidase and/or EPX” (priority 2016, dated 2021).

The target of experiment [1] is T1, myeloperoxidase (Homo sapiens, UniProt P05164).
T1 sequence (P05164 49-745): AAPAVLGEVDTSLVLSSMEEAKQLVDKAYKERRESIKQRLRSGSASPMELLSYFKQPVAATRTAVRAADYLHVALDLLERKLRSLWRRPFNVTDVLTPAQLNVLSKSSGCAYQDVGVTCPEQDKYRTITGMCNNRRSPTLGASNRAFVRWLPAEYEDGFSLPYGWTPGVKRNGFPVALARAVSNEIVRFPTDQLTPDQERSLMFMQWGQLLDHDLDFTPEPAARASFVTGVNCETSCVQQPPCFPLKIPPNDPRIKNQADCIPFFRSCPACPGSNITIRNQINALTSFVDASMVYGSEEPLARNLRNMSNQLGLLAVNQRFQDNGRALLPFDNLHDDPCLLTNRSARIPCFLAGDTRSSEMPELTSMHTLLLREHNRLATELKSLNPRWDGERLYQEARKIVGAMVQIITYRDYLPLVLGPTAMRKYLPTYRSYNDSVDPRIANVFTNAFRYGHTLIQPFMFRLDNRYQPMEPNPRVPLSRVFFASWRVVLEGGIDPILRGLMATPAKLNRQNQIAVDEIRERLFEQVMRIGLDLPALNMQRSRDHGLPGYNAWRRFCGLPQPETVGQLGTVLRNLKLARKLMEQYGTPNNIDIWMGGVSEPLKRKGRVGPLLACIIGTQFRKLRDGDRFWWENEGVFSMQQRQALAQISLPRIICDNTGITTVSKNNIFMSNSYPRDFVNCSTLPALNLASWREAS
As to the kind of experiment: MPO Peroxidation Assay (Amplex Red Assay). Format: biochemical. As to conditions: potency range class, read-out: Amplex Red Assay IC50 value.

Experiment [2] concerns the target T1, myeloperoxidase. As to the kind of experiment: MPO Chlorination Assay (APF Assay). Format: biochemical. As to conditions: potency range class, read-out: APF Assay IC50 value.

One may read the IC50 as the concentration that inhibits the measured activity by half.

`Nc1cc([C@H](Cc2nc3c(-c4ccccc4)c(F)c(F)cc3[nH]2)c2ccccc2)c2nn[nH]c2n1` [Example 246, (R)-7-(2-(5,6-difluoro-4-phenyl-1H-benzo [d]imidazol-2-yl)-1-phenylethyl)-3H-[1,2,3]triazolo[4,5-b] pyridin-5-amine]: the IC50 at myeloperoxidase [1] was in the range of 101 to 999 nM; on myeloperoxidase [2], 1 to 100 nM.
Take `Nc1cc([C@H](Cc2nc3c(-c4cccc(Cl)c4)cccc3[nH]2)c2ccccc2)c2nn[nH]c2n1` [Example 247, (R)-7-(2-(4-(3-chlorophenyl)-1H-benzo[d]imidazol-2-yl)-1-phenylethyl)-3H-[1,2,3]triazolo [4,5-b]pyridin-5-amine]: the IC50 on myeloperoxidase [1] lay within 101 to 999 nM; at myeloperoxidase [2], 1 to 100 nM.
Consider `Nc1cc([C@H](Cc2nc3c(-c4ccccc4)cc(C(F)(F)F)cc3[nH]2)c2ccccc2)c2nn[nH]c2n1` [Example 248, (R)-7-(1-phenyl-2-(4-phenyl-6-(trifluoromethyl)-1H-benzo [d]imidazol-2-yl)ethyl)-3H-[1,2,3] triazolo[4,5-b] pyridin-5-amine], for which the results for the IC50 at myeloperoxidase [1] and on myeloperoxidase [2] were 101 to 999 nM and 1 to 100 nM, respectively.
Regarding `NC(=O)c1ccc(-c2cccc3[nH]c(C[C@H](c4ccccc4)c4cc(N)nc5[nH]nnc45)nc23)cc1` [Example 249, (R)-4-(2-(2-(5-amino-3H-[1,2,3]triazolo [4,5-b]pyridin-7-yl)-2-phenylethyl)-1H-benzo[d]imidazol-4-yl)benzamide], the values for the IC50 on myeloperoxidase [1] and at myeloperoxidase [2] were 101 to 999 nM and 1 to 100 nM, respectively.
With `Nc1cc([C@H](Cc2nc3ccc(-c4ccc(Cl)cc4)cc3[nH]2)c2ccccc2)c2nn[nH]c2n1` [Example 250], the half-maximal inhibitory concentration (IC50) on myeloperoxidase [1] is 101 to 999 nM; at myeloperoxidase [2], 1 to 100 nM.
For the compound `Nc1cc([C@H](Cc2nc3c(-c4cccc(C5CC5)c4)cccc3[nH]2)c2ccccc2)c2nn[nH]c2n1` [Example 251, (R)-7-(2-(4-(3-cyclopropylphenyl)-1H-benzo[d]imidazol-2-yl)-1-phenylethyl)-3H-[1,2,3]triazolo [4,5-b]pyridin-5-amine], the IC50 at myeloperoxidase [1] was in the range of 1000 to 10000 nM; at myeloperoxidase [2], 1 to 100 nM.
For `N#Cc1cccc(-c2cccc3[nH]c(C[C@H](c4ccccc4)c4cc(N)nc5[nH]nnc45)nc23)c1` [Example 252, (R)-3-(2-(2-(5-amino-3H-[1,2,3]triazolo [4,5-b]pyridin-7-yl)-2-phenylethyl)-1H-benzo[d]imidazol-4-yl)benzonitrile] the same measures were 1000 to 10000 nM and 1 to 100 nM.
With `Nc1cc([C@H](Cc2nc3c(-c4ccc(Cl)cc4)cccc3[nH]2)c2ccccc2)c2nn[nH]c2n1` [Example 253, (R)-7-(2-(4-(4-chlorophenyl)-1H-benzo[d]imidazol-2-yl)-1-phenylethyl)-3H-[1,2,3]triazolo [4,5-b] pyridin-5-amine], the IC50 was 1000 to 10000 nM on myeloperoxidase [1] and 1 to 100 nM on myeloperoxidase [2].
For the compound `N#Cc1cc(-c2ccccc2)c2nc(C[C@H](c3ccccc3)c3cc(N)nc4[nH]nnc34)[nH]c2c1` [Example 254, (R)-2-(2-(5-amino-3H-[1,2,3]triazolo [4,5-b]pyridin-7-yl)-2-phenylethyl)-4-phenyl-1H-benzo[d]imidazole-6-carbonitrile], the IC50 on myeloperoxidase [1] lay in the range of 1000 to 10000 nM; on myeloperoxidase [2], 1 to 100 nM.
In the case of `N#Cc1ccc(-c2ccc3nc(C[C@H](c4ccccc4)c4cc(N)nc5[nH]nnc45)[nH]c3c2)cc1` [Example 255, (R)-4-(2-(2-(5-amino-3H-[1,2,3]triazolo[4,5-b]pyridin-7-yl)-2-phenylethyl)-1H-benzo[d]imidazol-6-yl)benzonitrile], the values for the IC50 on myeloperoxidase [1] and at myeloperoxidase [2] were 1000 to 10000 nM and 1 to 100 nM, respectively.
With `Nc1cc([C@H](Cc2nc3ccc(-c4ccccc4)cc3[nH]2)c2ccccc2)c2nn[nH]c2n1` [Example 256, (R)-7-(1-phenyl-2-(6-phenyl-1H-benzo[d]imidazol-2-yl)ethyl)-3H-[1,2,3]triazolo [4,5-b]pyridin-5-amine], the IC50 on myeloperoxidase [1] and at myeloperoxidase [2] was 101 to 999 nM in each case.
On to `Cn1c(C[C@H](c2ccccc2)c2cc(N)nc3[nH]nnc23)nc2ccc(-c3ccccc3)cc21` [Example 257, (R)-7-(2-(1-methyl-6-phenyl-1H-benzo[d]imidazol-2-yl)-1-phenylethyl)-3H-[1,2,3]triazolo[4,5-b] pyridin-5-amine], for which the IC50 at myeloperoxidase [1] lay in the range of 1000 to 10000 nM; on myeloperoxidase [2], 101 to 999 nM.
For `Cn1c(C[C@H](c2ccccc2)c2cc(N)nc3[nH]nnc23)nc2cc(-c3ccccc3)ccc21` [Example 258, (R)-7-(2-(1-methyl-5-phenyl-1H-benzo[d]imidazol-2-yl)-1-phenylethyl)-3H-[1,2,3]triazolo[4,5-b] pyridin-5-amine] the same measures were 1000 to 10000 nM and 101 to 999 nM.
For `Nc1cc([C@H](Cc2nc3cc(F)c(-c4ccccc4)cc3[nH]2)c2ccccc2)c2nn[nH]c2n1` [Example 259, (R)-7-(2-(5-fluoro-6-phenyl-1H-benzo[d]imidazol-2-yl)-1-phenylethyl)-3H-[1,2,3]triazolo[4,5-b] pyridin-5-amine], the IC50 at myeloperoxidase [1] and at myeloperoxidase [2] was 101 to 999 nM each time.
Take `Nc1cc([C@H](Cc2nc3c(-c4ccccc4Cl)cccc3[nH]2)c2ccccc2)c2nn[nH]c2n1` [Example 260, (R)-7-(2-(4-(2-chlorophenyl)-1H-benzo[d]imidazol-2-yl)-1-phenylethyl)-3H-[1,2,3]triazolo [4,5-b]pyridin-5-amine]: the IC50 on myeloperoxidase [1] lay within 1000 to 10000 nM; at myeloperoxidase [2] it was 101 to 999 nM.
Regarding `Nc1cc([C@H](Cc2nc3ccccc3[nH]2)c2ccccc2)c2nn[nH]c2n1` [Example 261, (R)-7-(2-(1H-benzo [d]imidazol-2-yl)-1-phenylethyl)-3H-[1,2,3]triazolo[4,5-b] pyridin-5-amine], the IC50 was 101 to 999 nM on myeloperoxidase [1] and 1000 to 10000 nM on myeloperoxidase [2].
The matching figures for `Cn1c(C[C@H](c2ccccc2)c2cc(N)nc3[nH]nnc23)nc2c(-c3ccccc3)cccc21` [Example 262, (R)-7-(2-(1-methyl-4-phenyl-1H-benzo[d]imidazol-2-yl)-1-phenylethyl)-3H-[1,2,3]triazolo [4,5-b]pyridin-5-amine]: 1000 to 10000 nM and 1000 to 10000 nM.
For `Nc1cc([C@H](Cc2nc3ccc(Br)cc3s2)c2ccccc2)c2nn[nH]c2n1` [Example 263, (R)-7-(2-(6-bromobenzo [d]thiazol-2-yl)-1-phenylethyl)-3H-[1,2,3]triazolo[4,5-b] pyridin-5-amine], the IC50 on myeloperoxidase [1] and at myeloperoxidase [2] was 101 to 999 nM each time.
